The target in assay [1] is Dual specificity protein kinase CLK2 (Homo sapiens, UniProt P49760). The assay is described as follows: Inhibition of recombinant CLK2 (unknown origin) using Ser/Thr 6 peptide as substrate incubated for 1 hr in presence of ATP by FRET assay.
Assay [2] can be described thus: Induction of chondrogenesis in human MSC assessed as incubated for 6 days by rhodamine B and Nile red staining based imaging analysis. It counts as functional. The following applies: bmmsc.
The target in assay [3] is Dual specificity tyrosine-phosphorylation-regulated kinase 1A (Homo sapiens, UniProt Q13627). The assay is described as follows: Inhibition of recombinant DYRK1A (unknown origin) using Ser/Thr 18 peptide as substrate incubated for 1 hr in presence of ATP by FRET assay.
In assay [4] the target is Dual specificity protein kinase CLK3 (Homo sapiens, UniProt P49761). The assay is described as follows: Inhibition of recombinant CLK3 (unknown origin) using Ser/Thr 18 peptide as substrate incubated for 1 hr in presence of ATP by FRET assay.
Chain of Dual specificity protein kinase CLK3 (P49761 whole entry): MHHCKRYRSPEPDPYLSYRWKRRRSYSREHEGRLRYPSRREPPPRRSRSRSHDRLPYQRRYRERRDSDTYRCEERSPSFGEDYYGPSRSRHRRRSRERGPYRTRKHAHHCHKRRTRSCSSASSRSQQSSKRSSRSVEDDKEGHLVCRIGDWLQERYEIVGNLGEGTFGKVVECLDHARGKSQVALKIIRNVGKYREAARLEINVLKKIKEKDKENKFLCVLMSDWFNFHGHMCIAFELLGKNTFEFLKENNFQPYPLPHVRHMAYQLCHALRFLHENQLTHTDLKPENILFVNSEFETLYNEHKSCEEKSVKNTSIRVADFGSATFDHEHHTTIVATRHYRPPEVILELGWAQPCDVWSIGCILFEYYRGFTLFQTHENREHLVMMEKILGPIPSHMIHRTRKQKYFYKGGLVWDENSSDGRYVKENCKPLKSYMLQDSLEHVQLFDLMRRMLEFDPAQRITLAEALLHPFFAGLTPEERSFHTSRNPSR
Assay [5] can be described thus: Induction of chondrogenesis in human MSC assessed as maximum activity at 30 nM incubated for 6 days by rhodamine B and Nile red staining based imaging analysis relative to control. The format is functional. Particulars: BMMSC, 144 h, time 6 day.
Assay [6] is described as follows: Effect on Wnt signaling pathway in human SW480 cells harbouring TCF/LEF luciferase reporter gene and SP5-Luc reporter gene incubated for 36 to 48 hrs by luminescence assay. It counts as cell-based.
Assay [7] in a line: Inhibition of IL1-beta induced MMP3 expression levels in human chondrocytes assessed as MMP3 levels incubated for 2hrs followed by IL1-beta stimulation and measured after overnight incubation by LANCE assay. It counts as functional, cell-based. The following applies: Chondrocyte. (In general: In TR-FRET formats the signal depends on donor and acceptor labels being close together.)

A short description of assay [8]: Induction of chondrogenesis in human MSC assessed as maximum activity at 10 nM incubated for 6 days by rhodamine B and Nile red staining based imaging analysis relative to control. It counts as functional. The following applies: BMMSC, 144 h, time 6 day.
Assay [9] in a line: Induction of chondrogenesis in human MSC assessed as maximum activity at 100 nM incubated for 6 days by rhodamine B and Nile red staining based imaging analysis relative to control. It counts as functional. Particulars: BMMSC, 144 h, time 6 day.
Assay [10] is described as follows: Inhibition of IL1-beta induced MMP3 expression levels in human chondrocytes assessed as MMP3 levels incubated for 2hrs followed by IL1-beta stimulation and measured after overnight incubation by LANCE assay relative to control. It counts as functional, Chondrocyte.

Our source for the EC50, Emax and Imax values is ChEMBL document CHEMBL4739717, “Methods of treating cartilage disorders through inhibition of clk and dyrk” (2020).

Each structure is given as a SMILES string.

Chain of Dual specificity protein kinase CLK2 (P49760 whole entry): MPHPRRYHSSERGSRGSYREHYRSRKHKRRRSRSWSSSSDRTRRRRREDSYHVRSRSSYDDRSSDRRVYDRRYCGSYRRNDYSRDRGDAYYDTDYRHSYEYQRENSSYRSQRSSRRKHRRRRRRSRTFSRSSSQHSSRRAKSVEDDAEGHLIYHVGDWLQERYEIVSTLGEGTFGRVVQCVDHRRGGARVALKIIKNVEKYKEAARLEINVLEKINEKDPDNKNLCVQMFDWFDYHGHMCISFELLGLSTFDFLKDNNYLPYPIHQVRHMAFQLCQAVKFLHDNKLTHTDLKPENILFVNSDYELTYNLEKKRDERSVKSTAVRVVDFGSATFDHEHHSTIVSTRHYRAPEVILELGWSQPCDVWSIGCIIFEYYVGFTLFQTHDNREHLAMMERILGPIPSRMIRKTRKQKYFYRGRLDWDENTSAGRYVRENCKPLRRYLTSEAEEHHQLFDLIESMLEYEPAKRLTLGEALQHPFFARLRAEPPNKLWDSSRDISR

The term EC50 denotes the concentration that produces a half-maximal response. Broadly, the Emax is the greatest response seen or fitted, relative to the assay's reference. As for `CN(C)CCNc1cc(F)cc(-c2cccc3[nH]c(-c4n[nH]c5cnc(-c6cncc(NC(=O)C(C)(C)C)c6)cc45)cc23)c1`, the concentration for a half-maximal effect (EC50) was 6 nM in assay [1]; 10 nM in assay [2]; 45 nM in [3]; 49 nM in assay [4]; 386 nM in [6]. Besides, the Emax at 0.03 µM in assay [5] was determined as 87.3%.
For `Fc1cccc(-c2ccnc3[nH]c(-c4n[nH]c5ccc(-c6cncc(CN7CCC(F)(F)C7)c6)cc45)nc23)c1`, the EC50 came to 21 nM in assay [1]; 10 nM in assay [2]; 80 nM in assay [3]; 90 nM in [4]; 19.1 nM in assay [6]. The Emax at 0.03 µM in assay [5] is 85.8%.
For `O=C(N[C@H]1C[C@@H]1c1ccccc1)c1n[nH]c2ccc(-c3cncc(CN4CCCCC4)c3)cc12`, the concentration for a half-maximal effect (EC50) in [1] is 8 nM; in assay [3], 1 nM; in [4], 717 nM; in assay [7], 4 nM; in [6], 1030 nM.
As for `CCCC(=O)Nc1cncc(-c2cc3c(-c4nc5c(-c6ccsc6)cncc5[nH]4)n[nH]c3cn2)c1`, the EC50 in assay [1] was determined as 3 nM; in assay [3], 8 nM; in assay [4] it was 21 nM; in assay [6], 61.5 nM. In addition, in assay [5], the Emax at 0.03 µM was 42%.
Regarding `O=C(N[C@H]1C[C@@H]1c1ccccc1)c1n[nH]c2ccc(-c3cccnc3)cc12`, the EC50 was 10 nM in assay [1]; 4 nM in [3]; 6150 nM in [4]; 1.6 nM in assay [7]; 1390 nM in [6].
Consider `CN(C)Cc1cncc(-c2cnc3[nH]nc(-c4cc5c(-c6cccc(F)c6)nccc5[nH]4)c3c2)c1`, for which the concentration for a half-maximal effect (EC50) in [1] turned out to be 4 nM; in [2] it was 10 nM; in [3], 91 nM; in assay [4] it was 74 nM; in assay [6], 1170 nM. Further, the Emax at 0.01 µM in [8] is 110%.
As for `CC(C)CC(=O)Nc1cncc(-c2ccc3[nH]nc(-c4nc5c(-c6cccnc6)cncc5[nH]4)c3c2)c1`, the EC50 came to 100 nM in [2], 12 nM in assay [3], 111 nM in [7] and 12 nM in [6]. Also, the Emax at 0.1 µM in assay [9] stood at 198%. In assay [10], the Imax was 100%.
As to `CN1CCN(c2cc(C(=O)Nc3cc4cc(-c5cncs5)ccc4cn3)ccn2)CC1`, the EC50 in assay [7] came to 423 nM. The Emax at 0.03 µM in assay [5] came to 22.3%. The Imax in assay [10] is 100%.
For the compound `CN1CCC(C(=O)Nc2cc3cc(-c4cnsc4)cnc3cn2)CC1`, the EC50 was more than 10000 nM in assay [1], more than 10000 nM in [4], 3000 nM in assay [7] and more than 10000 nM in [6].
Turning to `Cc1n[nH]c2ccc(-c3cncc(NC4CCNCC4)n3)cc12`, the EC50 in assay [1] was 1 nM; in assay [3] it was 9 nM; in assay [4], 1420 nM; in [7], 1050 nM; in [6] it was 256 nM.
As for `CN(C)CCNc1cc(F)cc(-c2cccc3[nH]c(-c4n[nH]c5ccc(-c6cncc(CN7CCCCC7)c6)nc45)cc23)c1`, the EC50 in [1] was determined as 4 nM; in assay [3], 40 nM; in assay [4], 49 nM; in assay [6], 1270 nM. In assay [5], the Emax at 0.03 µM stood at 48.5%.
As to `O=C(Nc1cncc(-c2ccc3[nH]nc(-c4nc5c(-c6cccs6)cccc5[nH]4)c3n2)c1)C1CC1`, the EC50 was more than 10000 nM in assay [3], more than 10000 nM in [4], 6.7 nM in assay [7] and 3380 nM in assay [6]. Moreover, in assay [10], the Imax is given as 72%.
Take `O=C(CC1CCNCC1)Nc1cncc(-c2cnc3[nH]nc(-c4cc5c(-c6ccncc6)ccnc5[nH]4)c3c2)c1`: the EC50 in assay [1] was 11 nM; in [3], 21 nM; in assay [4], more than 10000 nM; in assay [6] it was more than 10000 nM. Further, in assay [5], the Emax at 0.03 µM came to 26.7%.
As to `CCCC(=O)Nc1cncc(-c2ccc3[nH]nc(-c4nc5c(N6CCCCC6)cncc5[nH]4)c3c2)c1`, the figures for the EC50 in [3], in assay [7] and in assay [6] were 14 nM, 20.5 nM and 42 nM, respectively. In addition, the Emax at 0.03 µM in assay [5] came out at 77.3%. Also, the Imax in assay [10] came to 39%.
Regarding `O=C(Nc1cccnc1)c1n[nH]c2ccc(-c3cncc(CN4CCS(=O)(=O)CC4)c3)cc12`, the values for the EC50 in assay [3], in [7] and in assay [6] were 2 nM, 616 nM and 210 nM, respectively. For the same compound, in assay [10], the Imax amounted to 8.6%.
Take `c1cncc(-c2ccc3[nH]nc(-c4nc5c(N6CCOCC6)cncc5[nH]4)c3c2)c1`: the EC50 worked out at 2 nM in [3], 13.6 nM in assay [7] and 23 nM in assay [6]. In [5], the maximal response (Emax) at 0.03 µM is 90.4%. Also, in assay [10], the Imax was 100%.
For `Cc1n[nH]c2ccc(-c3cncc(NCC4(F)CNC4)n3)cc12`, the EC50 in assay [3] was 11 nM; in assay [7] it was 2270 nM; in [6], 780 nM. Also, the Imax in assay [10] turned out to be 100%.
The like results for `CN1CCC(Oc2ccc3[nH]c(-c4n[nH]c5ccc(-c6cnn(C)c6)cc45)nc3c2)CC1` were, in that order, 2 nM, 170 nM, 18.3 nM and 100%.
`COc1cncc(C#Cc2c[nH]nc2C(=O)Nc2ccc(OCCN3CCCC3)nc2)c1`: the EC50 is 19 nM in [3], more than 10000 nM in assay [4], 3000 nM in assay [7] and 1210 nM in [6]. Also, the Imax in assay [10] came to 2.4%.
`Cn1ncc(-c2ccc3cnc(NC(=O)C4CCN(C(=O)c5ccccc5)CC4)cc3c2)c1CN1CCCCC1`: the EC50 in [3] was found to be 3 nM; in [7], 35 nM; in assay [6] it was 706 nM. Also, in assay [10], the Imax worked out at 51%.
With `CN1CCN(c2ccc(C(=O)N3CCN(c4cc(C(=O)Nc5cc6cc(-c7cnn(C)c7)ccc6cn5)ccn4)CC3)cn2)CC1`, the results for the EC50 in assay [1] and in [7] were 3 nM and 304 nM, respectively.
Take `O=C(Nc1cncc(-c2ccc3[nH]nc(-c4nc5c(-c6ccccn6)ccnc5[nH]4)c3n2)c1)c1ccccc1`: the EC50 in assay [3] was more than 10000 nM; in assay [4], more than 10000 nM; in assay [7] it was 5.1 nM; in assay [6], more than 10000 nM. In assay [10], the Imax is given as 67%.
For `O=C(Nc1cncc(-c2ccc3[nH]nc(-c4nc5c(-c6cccc(F)c6)cccc5[nH]4)c3n2)c1)C1CC1`, the concentration for a half-maximal effect (EC50) in assay [3] was more than 10000 nM; in assay [4], more than 10000 nM; in assay [7] it was 0.2 nM; in assay [6], 1080 nM. Moreover, in [10], the Imax is on record as 70%.
With `O=C(Nc1cc2cc(-c3cnco3)cnc2cn1)C1CCNCC1`, the EC50 in [1] was more than 10000 nM; in [3], 40 nM; in [4], more than 10000 nM; in assay [7], 35.8 nM; in assay [6], more than 10000 nM.
On to `O=C(Nc1ccc(CN2CCCC2)cc1)c1n[nH]c2ccc(-c3cnn(C4CC4)c3)cc12`, for which the EC50 was determined as 4 nM in [3], 3000 nM in assay [7] and 451 nM in assay [6]. Also, the Imax in assay [10] came out at 57%.
For the compound `Cc1n[nH]c2ccc(-c3cncc(N[C@H](CO)Cc4cccc(C(F)(F)F)c4)n3)cc12`, the concentration for a half-maximal effect (EC50) in [1] was 37 nM; in [3], 45 nM; in assay [4], 3950 nM; in assay [7] it was 3000 nM; in assay [6], 809 nM.
`COc1cncc(C#Cc2c[nH]nc2C(=O)Nc2ccc(OC3CCN(C)CC3)nc2)c1`: the EC50 in assay [3] was 9 nM; in [4], more than 10000 nM; in [7], 3000 nM; in [6], 3570 nM. In [10], the Imax was determined as 3.4%.
